Assay results taken from patent US11198850B2, “Method for manufacturing telencephalon or progenitor tissue thereof” (RIKEN, priority 2013, dated 2021).

Assays:
[1] = test system: Human ES cells (KhES-1) aggregates; assay: Cortical hem formation in human ES cell aggregates with Wnt signal enhancer, immunohistostaining on day 42; assay type: cell-based; settings: 3 μM CHIR99021 alone, day 18 to day 42
Protocol: Human ES cells (KhES-1; a fluorescence protein gene Venus is knocked-in a telencephalon specific gene Foxg1) were dispersed to single cells by a trypsin treatment, and according to the SFEBq method (Nakano et al, Cell Stem Cell, 2012), aggregates were formed and subjected to suspension aggregate culture at 37° C. in the presence of 5% CO2 for differentiation induction. The dispersed 9000 human ES cells were seeded in each well of a V bottom 96 well plate applied with a low cell adsorptive surface coating, and a growth factor-free G-MEM medium (Gibco/Invitrogen) added with 20% KSR (Knockout Serum Replacement), 0.1 mM non-essential amino acid solution (Gibco/Invitrogen), 1 mM sodium pyruvate solution (Sigma), and 0.1 mM 2-mercaptoethanol was used as the medium for differentiation induction. […] The aggregate was analyzed on day 1 and day 34 from the start of differentiation induction, and analyzed by immunohistostaining on day 42. […] The culture medium used for the culture from day 18 to day 42 was DMEM/F12 medium (Gibco/Invitrogen) added with 1% N2 supplement (Gibco/Invitrogen), 1% lipid concentrate (Chemically defined lipid concentrate, Gibco/Invitrogen), 10% FBS, 5 μg/ml heparin, 3 μM GSK-3β inhibitor CHIR99021 (Wnt signal enhancer) and the aggregates were analyzed by immunohistostaining on day 42.

[2] = test system: hESC-derived cortical neuroepithelium; assay: Rolling morphogenesis of hESC-derived cortical neuroepithelium with ROCK inhibitor; assay type: cell-based, human; settings: P<0.001 vs control, Fisher's exact test, dihydrochloride
Description: (A-I) Asymmetric progression of rounding morphogenesis of hESC-derived cortical neuroepithelium. Arrows indicate boundary of a cortical neuroepithelium domain in A and rolling epithelium in B-D. Arrowheads indicate rolling epithelium in E. Arrows indicate rounding movements of the neuroepithelium in F-I. (J-L) Effect of the ROCK inhibitor Y-27632 on the rolling of cortical neuroepithelium. […] Treatment group, n=187 neuroepithelium domains; control group, n=130. (M and N) The rolling shape was preferentially observed on the side with strong expression of Otx2 and Coup-TF1 (dorsal and caudal markers). (O-Q) Adjacent formation of neuroepithelium structures of cortex (Pax6+) and LGE (Gsh2+; with GAD65^+ GABAergic neurons underneath) on day 35. The cortical side contacting the LGE domain was opposite to the side with strong rolling (arrow). (R) Interkinetic nuclear migration in the hESC-derived cortical neuroepithelium on day 24 (two-photon imaging). Visualized with partial mixing of pax6::venus reporter hESCs with nonlabeled hESCs. Two daughter cells with both apical and basal processes were generated from an apically dividing progenitor. (Scale bars, 200 μm in A; 100 μm in B-H and J-N; 200 μm in O-Q.) Nuclear counter staining (blue), DAPI.

[3] = test system: hESC-derived cortical neuroepithelium; assay: Notch signal inhibition in hESC-derived cortical neuroepithelium, neural stem cell/progenitor and neuron markers; assay type: cell-based, human; settings: 10 μM DAPT, days 70-77
Description: (A-C) Immunostaining of Pax6 and Sox2 in apical and basal (SVZ) neural stem cells/progenitors within the hESC-derived cortical neuroepithelium on day 91. The majority of Sox2 positive cells express Pax6 (C). (D-F) Effects of Notch signal inhibition on the expression of neural stem cells/progenitor and neuron markers in cortical neuroepithelium. […] An increase of cortical neuroepithelium thickness also observed after the treatment (F). ***P<0.001, Student t tests between with DAPT (n=6) and without DAPT (n=5) treatment. (G) Schematic of oRG neural stem cells/progenitors in the human fetal outer SVZ. (H and H′) Phospho-vimentin+ neural stem cells/progenitors in the SVZ expressed Sox2. (I) Phospho-vimentin+ neural stem cells/progenitors in the SVZ with a long […] process extending toward the pial surface. (J) Phospho-vimentin+ SVZ neural stem cells/progenitors with a basal process carried a pericentin+ centrosome in the neurons. During mitosis, two pericentin+ centrioles were found for dividing cells. […] (Scale bars, 100 μm in A-E; 25 μm in H-K.)
Cortical neuroepithelium induced from hESCs were subjected to culture under the following conditions. On day 18, the cell aggregates were transferred to a 9-cm Petri dish (non-cell adhesive surface coat) and further cultured in DMEM/F12 medium (Gibco/Invitrogen) supplemented with 1% N2 supplement (Gibco/Invitrogen), 1% lipid concentrate (Chemically Defined Lipid Concentrate, Gibco/Invitrogen), 0.25 mg/mL Fungizone, 100 U/mL penicillin, and 100 μg/mL streptomycin at 37° C. in the presence of 5% CO2 and 40% O2. From day 35, 10% FBS, 5 μg/mL heparin, and 1% Matrigel growth factor-reduced (BD Biosciences) were also added to the medium. To prevent cell death in the central portions of cell aggregates, the aggregates were cut into half-size with fine forceps under a dissecting microscope every 2 wk after day 35 and were cultured using a lumox culture dish (SARSTEDT; O2 penetrating) after day 56. From day 70, the concentration of Matrigel was increased (final 2%) and B27 supplement (Gibco/Invitrogen) was added to the medium.

[4] = test system: Human ES cells (KhES-1) aggregates; assay: Induction of basal ganglia progenitor tissue (LGE/MGE) in human ES cell aggregates by Shh signal agonist, immunohistostaining on day 35; assay type: cell-based
Protocol: Human ES cells (KhES-1; a fluorescence protein gene Venus is knocked-in a telencephalon specific gene Foxg1) were dispersed to single cells by a trypsin treatment, and according to the SFEBq method (Nakano et al, Cell Stem Cell, 2012), aggregates were formed and subjected to suspension aggregate culture at 37° C. in the presence of 5% CO2 for differentiation induction. The dispersed 9000 human ES cells were seeded in each well of a V bottom 96 well plate applied with a low cell adsorptive surface coating, and a growth factor-free G-MEM medium (Gibco/Invitrogen) added with 20% KSR (Knockout Serum Replacement), 0.1 mM non-essential amino acid solution (Gibco/Invitrogen), 1 mM sodium pyruvate solution (Sigma), and 0.1 mM 2-mercaptoethanol was used as the medium for differentiation induction. To suppress dispersion-induced cell death, 20 μM of a ROCK inhibitor Y-27632 was added for the first 3 days of differentiation induction, and the concentration thereof was reduced to half for the next 3 days. From day 0 to day 18 after the start of the differentiation induction, Wnt signal inhibitor IWR-1-end (3 μM) and TGFβ signal inhibitor SB431542 (5 μM) were added and allowed to react. On day 18 from the start of differentiation induction, these aggregates were transferred to a 9 cm petri dish applied with low cell-adhesive surface coating, and suspension culture was performed at 37° C., in the presence of 5% CO2, 40% O2. From day 18 to day 35, DMEM/F12 medium (Gibco/Invitrogen) added with 1% N2 supplement (Gibco/Invitrogen), and 1% lipid concentrate (Chemically defined lipid concentrate, Gibco/Invitrogen) was used. From day 35, the medium further added with 10% FBS, 5 μg/ml heparin, and 1% Matrigel growth factor reduced (BD Bioscience) was used. The aggregate was analyzed on day 1 and day 34 from the start of differentiation induction, and analyzed by immunohistostaining on day 42.
Up to day 35 of differentiation induction, cells were cultured under culture conditions similar to those of Example 1. That is, human ES cell aggregates were cultured in a V bottom 96 well plate up to 18 days after differentiation induction, suspended aggregates were transferred to a non-cell adhesive petri dish (diameter […]), and suspension culture was performed at 37° C. in the presence of 5% CO2, 40% O2 from day 18 to day 35 of differentiation induction. However, Sonic hedgehog (Shh) signal agonist SAG was added to the culture medium of Example 1 at a final concentration of 30 nM or 500 nM only in the period of from day 15 to day 21 and allowed to react. The aggregate was analyzed by immunohistostaining on day 35.
Up to day 35 of differentiation induction, cells were cultured under culture conditions similar to those of Example 2. That is, human ES cell aggregates were cultured in a V bottom 96 well plate up to 18 days after differentiation induction, suspended aggregates were transferred to a non-cell adhesive petri dish (diameter 9 cm), and suspension culture was performed at 37° C. in the presence of 5% CO2, 40% O2, from day 18 to day 35 of differentiation induction. However, Shh signal agonist SAG was added to the culture medium at a concentration of 30 nM only in the period of from day 15 to day 21 of differentiation induction. The aggregate was analyzed by immunohistostaining on day 35.
Ventralization of cortical neuroepithelium was performed by adding hedgehog agonist SAG (30 nM or 500 nM) during culture days 15-21. The cell aggregates were fixed on culture day 35.

[5] = 30 nM SAG, day 15 to day 21, analysed day 35

Cc1cnc(-c2cnc(NCCNc3ccc(C#N)cn3)nc2-c2ccc(Cl)cc2Cl)[nH]1 [CHIR99021, 6-[[2-[[4-(2,4-Dichlorophenyl)-5-(5-methyl-1H-imidazol-2-yl)-2-pyrimidinyl]amino]ethyl]amino]-3-pyridinecarbonitrile]
aggregates with selective formation of cortical hem [1]: not less than 80%

C[C@@H](N)[C@H]1CC[C@H](C(=O)Nc2ccncc2)CC1.Cl.Cl [Y-27632, (+)-(R)-trans-4-(1-aminoethyl)-N-(4-pyridyl)cyclohexanecarboxamide dihydrochloride]
rolling morphogenesis of cortical neuroepithelium [2]: Attenuation of rolling morphogenesis
rolling morphogenesis of cortical neuroepithelium ([2]; listed as ROCK inhibitor): attenuated

C[C@H](NC(=O)Cc1cc(F)cc(F)c1)C(=O)N[C@H](C(=O)OC(C)(C)C)c1ccccc1 [DAPT]
Satb2+ neurons [3]: increased
Sox2+ Tbr2− cells after the treatment [3]: rarely remained
Sox2− Tbr2+ intermediate neural stem cells/progenitors [3]: increased
cortical neuroepithelium thickness ([3]; P<0.001): increase

CNC1CCC(N(Cc2cccc(-c3ccncc3)c2)C(=O)c2sc3ccccc3c2Cl)CC1 (stereo not shown) [SAG]
Gsh2 (LGE marker) expression in foxg1::Venus-expressing neural epithelium ([4]; 30 nM SAG for days 15-21): a substantial portion of foxg1::Venus-expressing neural epithelium expressed Gsh2
aggregates with Gsh2 positive LGE neuroepithelium [4, 5]: not less than 70%
aggregates with continuous self-formation of cerebral cortex and basal ganglion in one aggregate [4, 5]: not less than 50%
percentage of Gsh2+ neuroepithelium in Foxg1+ telencephalic neuroepithelium ([4]; 30 nM SAG, days 15-21): increased
percentage of Pax6+ neuroepithelium in Foxg1+ telencephalic neuroepithelium ([4]; 30 nM SAG, days 15-21): partially suppressed
aggregates with Foxg1::venus positive and Nkx2.1 positive MGE neuroepithelium ([4]; 500 nM SAG, day 15 to day 21, analysed day 35): not less than 80%
Nkx2.1+ neuroepithelium as share of Foxg1+ telencephalic NE ([4]; 500 nM SAG, days 15-21): 40-50%
expression of both Pax6 and Gsh2 ([4]; 500 nM SAG, days 15-21): efficiently suppressed
MGE marker Nkx2.1 expression ([4]; high concentrations of SAG (500 nM), days 15-21): induced the MGE marker Nkx2.1 at the cost of Pax6 and Gsh2 expression
